Data as given in US10022422B2, “Peptidomimetic macrocycles” (priority 2009, dated 2018).
Where a SMILES comes first, the peptide text is derived from it. Bridges are numbered along the chain shown (N, C = ends). [ ]: non-standard residue; d: D form. S5 = C=CCCC[C@](C)(N)C(=O)O; Nle = CCCC[C@H](N)C(=O)O; Aib = CC(C)(N)C(=O)O

Assay: Figure 6
Parameters: AUC,all / AUC,inf: concentration or dose not given beside the values
Text: Table printed on a drawing sheet, Figure 6
First reader's note: The head SP-2 is printed shifted to the left of its column of values.

Row | Structure (SMILES) | AUC,all [ng·h/mL] | AUC,inf [ng·h/mL] | Cl [mL/min/kg] | Cmax, obs [ng/mL] | MRT [min] | T1/2 [min] | Vss [L/kg]
1 | CCCC[C@H](NC(C)=O)C(=O)N[C@@H](CC(=O)O)C(=O)N[C@H](C(=O)N[C@@H](CC(N)=O)C(=O)N1CCC[C@H]1C(=O)N[C@H](C(=O)N[C@@H](CC(C)C)C(=O)N[C@@H](CC(C)C)C(=O)N[C@@H](Cc1ccccc1)C(=O)N[C@@H](CC(C)C)C(=O)N[C@@H](CCCCN)C(=O)N[C@H](C(=O)N1CCC[C@H]1C(=O)N[C@@H](C)C(=O)N[C@@H](CCC(N)=O)C(N)=O)C(C)C)[C@@H](C)O)C(C)C [SP-1, Ac-NleDVNPTLLFLKVPAQ-NH2] | 1606 | 1616 | 31.22 | 7742 | 7.8 | 9.6 | 0.241
2 | CCCC[C@H](NC(C)=O)C(=O)N[C@@H](CC(=O)O)C(=O)N[C@H](C(=O)N[C@@H](CC(N)=O)C(=O)NC(C)(C)C(=O)N[C@H](C(=O)N[C@@H](CC(C)C)C(=O)N[C@@H](CC(C)C)C(=O)N[C@@H](Cc1ccccc1)C(=O)N[C@@H](CC(C)C)C(=O)N[C@@H](CCCCN)C(=O)N[C@H](C(=O)NC(C)(C)C(=O)N[C@@H](C)C(=O)N[C@@H](CCC(N)=O)C(N)=O)C(C)C)[C@@H](C)O)C(C)C [SP-2, Ac-NleDVNAibTLLFLKVAibAQ-NH2] (Ac-[Nle]DVN[Aib]TLLFLKV[Aib]AQ-NH2) | 3360 | 3385 | 15 | 8145 | 24.6 | 19.8 | 0.366
3 | CCCC[C@H](NC(C)=O)C(=O)N[C@@H](CC(=O)O)C(=O)N[C@H](C(=O)N[C@@H](CC(N)=O)C(=O)NC(C)(C)C(=O)N[C@H](C(=O)N[C@@H](CC(C)C)C(=O)N[C@@H](CC(C)C)C(=O)N[C@@H](Cc1ccccc1)C(=O)N[C@@]1(C)CCCC=CCCC[C@@](C)(C(=O)N[C@@H](CCCNC(=N)N)C(N)=O)NC(=O)[C@H](C)NC(=O)[C@H](C(C)C)NC(=O)[C@H](CCCCN)NC1=O)[C@@H](C)O)C(C)C [SP-6, Ac-NleDVNAibTLLF$KVA$R-NH2] (Ac-[Nle]DVN[Aib]TLLF[S5]KVA[S5]R-NH2; staple 10-14) | 10894 | 10976 | 4.65 | 12564 | 75 | 77.4 | 0.348
4 | CCCC[C@H](NC(C)=O)C(=O)N[C@@H](CC(=O)O)C(=O)N[C@H](C(=O)N[C@@H](CC(N)=O)C(=O)NC(C)(C)C(=O)N[C@H](C(=O)N[C@@H](CC(C)C)C(=O)N[C@@]1(C)CCCC=CCCC[C@@](C)(C(=O)N[C@@H](C)C(=O)N[C@@H](C)C(=O)N[C@@H](CCC(N)=O)C(N)=O)NC(=O)[C@H](CCCCN)NC(=O)[C@H](CC(C)C)NC(=O)[C@H](Cc2ccccc2)NC1=O)[C@@H](C)O)C(C)C [SP-9, Ac-NleDVNAibTL$FLK$AAQ-NH2] (Ac-[Nle]DVN[Aib]TL[S5]FLK[S5]AAQ-NH2; staple 8-12) | 8190 | 11950 | 5.67 | 9766 | 84.6 | 95.4 | 0.363
